Converted amounts (≈) assume the structure as drawn. “And” between values parts separate entries of the source, which are not always exact repeats. Identical values can stand only once.
Tests used:
[1] = tested on: Staphylococcus aureus ATCC 6738P; assay: agar-plate disc-diffusion test; format: cell-based; settings: suspended in water at 1 mg/ml; 7 mm disc; 24-48 hours at 25-37° C.
[2] = tested on: Micrococcus luteus ATCC 9341; assay: agar-plate disc-diffusion test; format: cell-based; settings: suspended in water at 1 mg/ml; 7 mm disc; 24-48 hours at 25-37° C.
Staphylococcus aureus = assay: in vivo activity against experimental bacterial infection (ED50); settings: mice; two doses subcutaneously; dose protecting fifty percent of test animals
Streptococcus pyogenes = assay: as above; settings: mice, dose protecting fifty percent of test animals; for ED50 Streptococcus pyogenes Oral: two doses orally
toxicity test (LD50) = settings: mouse, in vivo, iv, mice; administered intravenously
[3] = tested on: Bacillus subtilis ATCC 6633; assay: agar-plate disc-diffusion test; settings: 7 mm disc, 24-48 hours at 25-37° C.; for Size of Zone of Inhibition (mm) B. subtilis ATCC 6633, grown on minimal nutrient agar: 1 mg/ml; for Size of Zone of Inhibition (mm) Bacillus subtilis ATCC 6633: suspended in water at 1 mg/ml
Procedure: ^a Compounds were suspended in water at a concentration of 1 mg/ml; a
7 mm disc was dipped into the suspension and then placed on the agar
surface; incubation: 24-48 hours at 25-37° C.
^b Grown on minimal nutrient agar

[4] = tested on: Staphylococcus aureus X1.1; format: cell-based; settings: agar dilution; 2, 5, 17, 22 median of three tests; paired values two experiments
[5] = tested on: Staphylococcus aureus V41; format: cell-based; settings: penicillin-resistant strain; agar dilution; 2, 5, 17, 22 median of three tests; paired values two experiments
[6] = tested on: Staphylococcus aureus X400; format: cell-based; settings: methicillin-resistant strain; agar dilution; 2, 5, 17, 22 median of three tests; paired values two experiments
[7] = tested on: Staphylococcus epidermidis EPI1; format: cell-based; settings: agar dilution; 2, 5, 17, 22 median of three tests; paired values two experiments
[8] = tested on: Staphylococcus epidermidis EPI2; format: cell-based; settings: agar dilution; 2, 5, 17, 22 median of three tests; paired values two experiments
[9] = tested on: Streptococcus pyogenes C203; format: cell-based; settings: agar dilution; 2, 5, 17, 22 median of three tests; paired values two experiments
[10] = tested on: Streptococcus pneumoniae Park I; format: cell-based; settings: agar dilution; 2, 5, 17, 22 median of three tests; paired values two experiments
[11] = tested on: Streptococcus pneumoniae Group D X66; format: cell-based; settings: agar dilution; 2, 5, 17, 22 median of three tests; paired values two experiments
Streptococcus Group 9960 = format: cell-based, Streptococcus pneumoniae; settings: agar dilution; 2, 5, 17, 22 median of three tests; paired values two experiments

Compound | Size of Zone of Inhibition (mm) Staphylococcus aureus ATCC 6738P [1] [mm] | Size of Zone of Inhibition (mm) Micrococcus luteus ATCC 9341 [2] [mm] | ED50 Staphylococcus aureus Subcutaneous (Staphylococcus aureus) [mg/kg × 2] | ED50 Streptococcus pyogenes Oral (Streptococcus pyogenes) | ED50 Streptococcus pyogenes Subcutaneous (Streptococcus pyogenes; two doses subcutaneously) [mg/kg × 2] | LD50 (toxicity test (LD50)) [mg/kg] | Size of Zone of Inhibition (mm) B. subtilis ATCC 6633, grown on minimal nutrient agar [3] [mm] | Size of Zone of Inhibition (mm) Bacillus subtilis ATCC 6633 [3] | MIC Staphylococcus aureus X1.1 [4] [µg/mL] | MIC Staphylococcus aureus V41 [5] [µg/mL] | MIC Staphylococcus aureus X400 [6] [µg/mL] | MIC Staphylococcus epidermidis EPI1 [7] [µg/mL] | MIC Staphylococcus epidermidis EPI2 [8] [µg/mL] | MIC Streptococcus pyogenes C203 [9] [µg/mL] | MIC Streptococcus pneumoniae Park I [10] [µg/mL] | MIC Streptococcus pneumoniae Group D X66 [11] [µg/mL] | MIC Streptococcus pneumoniae Group 9960 (Streptococcus Group 9960) [µg/mL]
CCC(C)CCCCCCC(=O)N[C@@H](Cc1c[nH]c2ccccc12)C(=O)N[C@@H](CC(N)=O)C(=O)N[C@@H](CC(=O)O)C(=O)N[C@@H]1C(=O)NCC(=O)N[C@@H](CCCNC(=O)CCC(=O)O)C(=O)N[C@@H](CC(=O)O)C(=O)N[C@H](C)C(=O)N[C@@H](CC(=O)O)C(=O)NCC(=O)N[C@H](CO)C(=O)N[C@@H]([C@H](C)CC(=O)O)C(=O)N[C@@H](CC(=O)c2ccccc2N)C(=O)O[C@@H]1C (stereo partly drawn) [Compound 15] | 21 | 19 | 6.27 | > 200 mg/kg × 2 | 1.4 | 450 | 25 | 18 mm |  |  |  |  |  |  |  |  | 
CCCCCCCC(=O)N[C@@H](Cc1c[nH]c2ccccc12)C(=O)N[C@@H](CC(N)=O)C(=O)N[C@@H](CC(=O)O)C(=O)N[C@@H]1C(=O)NCC(=O)N[C@@H](CCCN)C(=O)N[C@@H](CC(=O)O)C(=O)N[C@H](C)C(=O)N[C@@H](CC(=O)O)C(=O)NCC(=O)N[C@H](CO)C(=O)N[C@@H]([C@H](C)CC(=O)O)C(=O)N[C@@H](CC(=O)c2ccccc2N)C(=O)O[C@@H]1C [Compound 2] | 23 | 23 |  | > 200 mg/kg × 2 |  | > 600 | 20 | 18 mm | 4 (≈ 2.51 µM) | 4 (≈ 2.51 µM) | 8 (≈ 5.02 µM) | 8 (≈ 5.02 µM) | 4 (≈ 2.51 µM) | 1 (≈ 0.628 µM) | 8 (≈ 5.02 µM) | 64 (≈ 40.2 µM) | 16 (≈ 10 µM)
CCC(C)CCCCCCC(=O)N[C@@H](Cc1c[nH]c2ccccc12)C(=O)N[C@@H](CC(N)=O)C(=O)N[C@@H](CC(=O)O)C(=O)N[C@@H]1C(=O)NCC(=O)N[C@@H](CCCNC(C)=O)C(=O)N[C@@H](CC(=O)O)C(=O)N[C@H](C)C(=O)N[C@@H](CC(=O)O)C(=O)NCC(=O)N[C@H](CO)C(=O)N[C@@H]([C@H](C)CC(=O)O)C(=O)N[C@@H](CC(=O)c2ccccc2N)C(=O)O[C@@H]1C (stereo partly drawn) [Compound 14] | 21 | 20 | 1.3 | 163 mg/kg × 2 and > 200 mg/kg × 2 |  | > 600 | 25 | 18 mm |  |  |  |  |  |  |  |  | 
NTrp -(n-dodecyl)-NOrn -(n-dodecyl)-A-21978C nucleus [Compound 23] |  |  |  |  |  |  |  |  | 8 | 8 | 16 | 8 | 8 | 4 | 8 | 32 | 8
CCCCCCCCCCCCCC(=O)N[C@@H](Cc1c[nH]c2ccccc12)C(=O)N[C@@H](CC(N)=O)C(=O)N[C@@H](CC(=O)O)C(=O)N[C@@H]1C(=O)NCC(=O)N[C@@H](CCCN)C(=O)N[C@@H](CC(=O)O)C(=O)N[C@H](C)C(=O)N[C@@H](CC(=O)O)C(=O)NCC(=O)N[C@H](CO)C(=O)N[C@@H]([C@H](C)CC(=O)O)C(=O)N[C@@H](CC(=O)c2ccccc2N)C(=O)O[C@@H]1C [Compound 8] | 22 | 21 |  | < 50 mg/kg × 2 |  | 62.5 | 28 | 21 mm |  |  | 2 (≈ 1.19 µM) | 1 (≈ 0.596 µM) | 2 (≈ 1.19 µM) |  |  |  | 
CCCCCCCC(=O)NCCC[C@@H]1NC(=O)CNC(=O)[C@@H](NC(=O)[C@H](CC(=O)O)NC(=O)[C@H](CC(N)=O)NC(=O)[C@H](Cc2c[nH]c3ccccc23)NC(=O)CCCCCCC)[C@@H](C)OC(=O)[C@H](CC(=O)c2ccccc2N)NC(=O)[C@H]([C@H](C)CC(=O)O)NC(=O)[C@@H](CO)NC(=O)CNC(=O)[C@H](CC(=O)O)NC(=O)[C@@H](C)NC(=O)[C@H](CC(=O)O)NC1=O [Compound 16] | 11 | 10 |  |  |  | > 600 | 17 | tr | 8 (≈ 4.65 µM) | 16 (≈ 9.31 µM) | 8 (≈ 4.65 µM) | 16 (≈ 9.31 µM) | 16 (≈ 9.31 µM) | 4 (≈ 2.33 µM) | 4 (≈ 2.33 µM) | > 128 | 64 (≈ 37.2 µM)
CCCCCCCCCC(=O)N[C@@H](Cc1c[nH]c2ccccc12)C(=O)N[C@H](CC(N)=O)C(=O)N[C@@H](CC(=O)O)C(=O)N[C@@H]1C(=O)NCC(=O)N[C@@H](CCCN)C(=O)N[C@@H](CC(=O)O)C(=O)N[C@H](C)C(=O)N[C@@H](CC(=O)O)C(=O)NCC(=O)N[C@H](CO)C(=O)N[C@@H]([C@H](C)CC(=O)O)C(=O)N[C@@H](CC(=O)c2ccccc2N)C(=O)O[C@@H]1C [Compound 4] |  |  |  |  |  | > 300 |  |  |  |  |  |  |  |  |  |  | 
NTrp -(n-Decanoyl)-NKyn -(n-decanoyl)-A-21978C [Compound 21] |  |  |  |  |  |  |  |  | 1 | 4 | 32 | 2 | 2 | 0.125 | 0.5 | > 128 | 128
